Like-named read-outs stand apart in the source and are kept apart here.
Legend:
Drosophila suzukii [1] = assay type: in vivo; conditions: vial; for Mortality (%) of flies when fed different sugar formulations: Table 1, first experiment; for Mortality (%) of flies when fed different erythritol and sucralose formulations: Table 2, second experiment; for Statistical comparison of mortalities in words: second experiment, 7 days, log-rank pairwise comparisons (FIG. 3)
Procedure: Materials and Methods. Flies and sugars: Drosophila suzukii used in these experiments were from a colony maintained at 22±5° C. under a photoperiod of L:D 16:8 h, and a relative humidity of 60±5% RH at the Horticultural Crops Research Unit, USDA ARS in Corvallis, Oreg. Wildtype flies collected from infested fruits in Corvallis, Oreg. were used to start the colony. Standard rearing methods and diet are described by Woltz, J. M., et al., Journal of Applied Entomology, 139:759-770 (2015). Newly emerged adult males and females were collected daily and maintained in cages with water and diet until they were specific ages for experimentation. Sugars used in this study, meso-erythritol (>99%), sucrose (>99%), and sucralose (>99%), were purchased from Fisher Scientific (Hampton, N.H.).
Different sugar formulations on the fly survivorship: Ten 5-day old flies (5 males and 5 females) were introduced into a plastic vial and given a tube (1.5 ml) containing different water-based solutions. Two combinations of erythritol (Ery) mixed with sucrose (Suc) or sucralose (Sul) were introduced to flies in a plastic vial for 7 days (FIG. 1). For the first experiment various pairs were tested (Table 1): Suc 0.5 M, Ery 0.5 M, Ery 1.5 M+Suc 0.5 M, and Ery 1.5 M+Suc 0.1 M. For the second experiment various pairs were tested (Table 2): Suc 0.5 M, Ery 0.5 M, Sul 0.5 M, Sul 0.1 M, Ery 1.5 M+Sul 0.5 M, Ery 1.5 M+Sul 0.1 M, Ery 2.0 M+Sul 0.1 M, and Ery 2.0 M+Sul 0.01 M. Survivorship of flies was checked daily for 7 days. Each pair per experiment was replicated at least three times.

Drosophila suzukii [2] = test: Fly mortality in the cage experiment; assay type: in vivo; conditions: 7 days (FIG. 7)
Procedure: Materials and Methods. Flies and sugars: Drosophila suzukii used in these experiments were from a colony maintained at 22±5° C. under a photoperiod of L:D 16:8 h, and a relative humidity of 60±5% RH at the Horticultural Crops Research Unit, USDA ARS in Corvallis, Oreg. Wildtype flies collected from infested fruits in Corvallis, Oreg. were used to start the colony. Standard rearing methods and diet are described by Woltz, J. M., et al., Journal of Applied Entomology, 139:759-770 (2015). Newly emerged adult males and females were collected daily and maintained in cages with water and diet until they were specific ages for experimentation. […] Effect of erythritol formulations with sucrose or sucralose on fly mortality in the cage experiment: Two combinations of erythritol (Ery) mixed with sucrose (Suc) or sucralose (Sul) were introduced to ten flies in a cage (25 cm wide×25 cm deep×28 cm height) for 7 days (FIG. 6). […] The cage experiment shared similar results with both the vial and cup experiments (FIG. 2, FIG. 5, FIG. 7). In summary, the erythritol/sucralose formulation will not affect human health. The erythritol/sucralose formulation can be directly applied as an insecticide for insects such as Drosophila suzukii. […] The formulations can be used as a phagostimulant with conventional or biological insecticides. […]

OC[C@H]1O[C@@](CO)(O[C@H]2O[C@H](CO)[C@@H](O)[C@H](O)[C@H]2O)[C@@H](O)[C@@H]1O [Sucrose (Suc) 0.5M, sucrose]
Mortality (%) of flies when fed different sugar formulations (Drosophila suzukii [1]; Day1): 1.3%
Mortality (%) of flies when fed different sugar formulations (Drosophila suzukii [1]; Day2): 1.3%
Mortality (%) of flies when fed different sugar formulations (Drosophila suzukii [1]; Day3): 3.8%
Mortality (%) of flies when fed different sugar formulations (Drosophila suzukii [1]; Day4): 5.0%
Mortality (%) of flies when fed different sugar formulations (Drosophila suzukii [1]; Day5): 5.0%
Mortality (%) of flies when fed different sugar formulations (Drosophila suzukii [1]; Day6): 6.3%
Mortality (%) of flies when fed different sugar formulations (Drosophila suzukii [1]; Day7): 11.3%
Mortality (%) of flies when fed different erythritol and sucralose formulations (Drosophila suzukii [1]; Day 1): 0.0%
Mortality (%) of flies when fed different erythritol and sucralose formulations (Drosophila suzukii [1]; Day 2): 2.5%
Mortality (%) of flies when fed different erythritol and sucralose formulations (Drosophila suzukii [1]; Day 3): 2.5%
Mortality (%) of flies when fed different erythritol and sucralose formulations (Drosophila suzukii [1]; Day 4): 2.5%
Mortality (%) of flies when fed different erythritol and sucralose formulations (Drosophila suzukii [1]; Day 5): 5.0%
Mortality (%) of flies when fed different erythritol and sucralose formulations (Drosophila suzukii [1]; Day 6): 5.0%
Mortality (%) of flies when fed different erythritol and sucralose formulations (Drosophila suzukii [1]; Day 7): 6.3%

OC[C@H]1O[C@H](O[C@]2(CCl)O[C@H](CCl)[C@@H](O)[C@@H]2O)[C@H](O)[C@@H](O)[C@H]1Cl [Sul 0.1M, sucralose]
Statistical comparison of mortalities in words (Drosophila suzukii [1]): statistically the same effect

OC[C@H]1O[C@H](O[C@]2(CCl)O[C@H](CCl)[C@@H](O)[C@@H]2O)[C@H](O)[C@@H](O)[C@H]1Cl [Sucralose (Sul) 0.5M, sucralose]
Statistical comparison of mortalities in words (Drosophila suzukii [1]): statistically the same effect

OC[C@@H](O)[C@@H](O)CO [Erythritol (Ery) 0.5M, meso-erythritol]
Statistical comparison of results in words (Drosophila suzukii [2]): statistically similar
Statistical comparison of mortalities in words (Drosophila suzukii [1]): statistically the same values
